Structures can show the parent of a compound that is named as a salt. Where two headings read alike, the source gives them in different places.
Tests used:
[1] = test system: T. vaginalis CDC reference strain 085 (metronidazole-resistant); test: IC50 assay, tritiated thymidine incorporation, 48 h, metronidazole-resistant strain 085; assay type: cell-based, Trichomonas vaginalis
Description: (§1) CDC reference strains 085 and 520 that are metronidazole resistant and sensitive, respectively, were maintained at 37° C. in Diamond's trypticase-yeast-maltose medium (TYM; pH 6.0). Metronidazole, tinidazole, pentamidine, and berenil were purchased from Sigma Chemical Co. (St. Louis, Mo., United States of America). Compound 1, see Das, B. P. and D. W. Boykin, J. Med. Chem., 20, 531-536 (1977); Compound 2, see Boykin, D. W., et al., Bioorganic and Med. Chem. Lett., 6:3017-3020 (1996); Compound 3 and Compound 4, see Boykin, D. W., et al., J. Med. Chem., 41, 124-129 (1998); Compound 6, see Francesconi, I., et al., J. Med. Chem., 42, 2260-2265 (1999); Compound 5, see Stephens, C., et al., J. Med. Chem., 44, 1741-1748 (2001); and Compound 9, see Mallena, S. et al., J. Am. Chem. Soc., 126, 13659-13669 (2004); were synthesized as previously reported. Purity was determined by NMR and TLC. The syntheses of 7 and 8 are outlined below. See also Crowell, A. L., et al., Antimicrob. Agents Chemother., 48, 3602-3605 (2004), which is incorporated herein by reference in its entirety.
(§2) Compounds were dissolved in dimethyl sulfoxide (DMSO, Sigma) and further diluted with Diamond's TYM media to reach assay concentrations. Two types of assays were performed on the cationic compounds being evaluated. An initial screen was performed using the standard MLC assay, see Crowell, A. L., et al., Antimicrob. Agents Chemother., 47, 1407-1409 (2003); Meingassner, J. G. and J. Thurner, Antimicrob. Agents Chemother., 15, 254-257 (1979), with a maximum concentration of 20 μM for the test compounds. After 48 h of incubation at 37° C., plates were examined using an inverted phase-contrast microscope. The lowest drug concentration at which no motile trichomonads were observed was recorded as the MLC. Each compound was tested at least twice under both aerobic and anaerobic conditions. Anaerobic conditions were generated using a GASPAK™ jar and CO2-generating GASPAK™ Plus anaerobic system envelopes (Becton Dickinson, Sparks, Md., United States of America) and monitored with GASPAK™ disposable anaerobic indicator strips (Becton Dickinson). […] To further evaluate the compounds' activity, a second type of assay was used to determine the concentration at which 50% of the parasite growth was inhibited (IC50). In these assays, 0.5 μCi of tritiated thymidine (Perkin-Elmer, Boston, Mass., United States of America) was added to each well of a standard assay at the initiation of culture. At 48 h of incubation under either aerobic or anaerobic conditions, cells were harvested onto glass fiber filters (Wallac, Turku, Finland) using a TOMTEC™ cell harvester (Hamden, Conn., United States of America). Incorporated thymidine was detected using BETAPLATE™ (Wallac) scintillation fluid and plate reader. The resulting counts per minute over the compound's concentration range were utilized to calculate IC50s using GRAPHPAD™ PRISM™ (GraphPad Software, Inc., San Diego, Calif., United States of America).

[2] = test system: T. vaginalis CDC reference strain 520 (metronidazole-sensitive); test: IC50 assay, tritiated thymidine incorporation, 48 h, metronidazole-sensitive strain 520; assay type: cell-based, Trichomonas vaginalis; details: for IC50: Trichomonas vaginalis
Description: as §1, §2

[3] = test system: T. vaginalis; test: In vitro assays against T. vaginalis, overall statement in words; assay type: cell-based, Trichomonas vaginalis
Description: as §2

[4] = test system: different protozoal infection; details: experimental model; cited from earlier work
[5] = test system: trichomoniasis infections; details: cited from earlier work
[6] = metronidazole-sensitive strain 520, aerobic, 48 h
[7] = metronidazole-sensitive strain 520, anaerobic, 48 h
[8] = metronidazole-resistant strain 085, aerobic, 48 h
[9] = metronidazole-resistant strain 085, anaerobic, 48 h
[10] = Trichomonas vaginalis, 48 h, read-out: IC50 values (μM ± SEM) 085 aerobic
[11] = Trichomonas vaginalis, 48 h, read-out: IC50 values (μM ± SEM) 085 anaerobic
[12] = 48 h, read-out: IC50 values (μM ± SEM) 520 aerobic
[13] = 48 h, read-out: IC50 values (μM ± SEM) 520 anaerobic
[14] = Trichomonas vaginalis, metronidazole-resistant strain 085, aerobic, 48 h, read-out: IC50 values (μM ± SEM) 085 aerobic
[15] = Trichomonas vaginalis, metronidazole-resistant strain 085, anaerobic, 48 h, read-out: IC50 values (μM ± SEM) 085 anaerobic
[16] = metronidazole-sensitive strain 520, aerobic, 48 h, read-out: IC50 values (μM ± SEM) 520 aerobic
[17] = metronidazole-sensitive strain 520, anaerobic, 48 h, read-out: IC50 values (μM ± SEM) 520 anaerobic

| Compound | IC50 values (μM ± SEM) 520 aerobic [2, 6] | IC50 values (μM ± SEM) 520 anaerobic [2, 7] | IC50 values (μM ± SEM) 085 anaerobic [1, 9] | IC50 [1, 10] | IC50 [1, 11] | IC50 [2, 12] | IC50 [2, 13] | effectiveness against T. vaginalis in vitro [3] | also measured |
| --- | --- | --- | --- | --- | --- | --- | --- | --- | --- |
| 4,4′-Bis{2-[(4-amidino)benzimidazolyl]}biphenyl tetrahydrochloride [Compound 7] | no effect | no effect | – | – | – | – | – | effective anti-trichomonads | activity against metronidazole-resistant 085 strain [1]: has activity; IC50 ([1]; metronidazole-resistant strain 085, aerobic, 48 h, read-out: IC50 values (μM ± SEM) 085 aerobic): 7.79 ± 4.2 µM; IC50 ([1]; metronidazole-resistant strain 085, anaerobic, 48 h, read-out: IC50 values (μM ± SEM) 085 anaerobic): 25.3 ± 43.1 µM; activity against metronidazole-sensitive 520 isolate [2]: not |
| CC(C)NC(=N)c1ccc2nc(-c3ccc4oc(-c5nc6ccc(C(=N)NC(C)C)cc6[nH]5)cc4c3)[nH]c2c1 (as salt: hydrochloride) [Compound 8, 2,5-Bis{2-[5-(N-isopropylamidino)benzimidazoyl]}benzo[b]furan tetrahydrochloride] | – | – | – | – | – | – | – | – | melting point: 285 to 290 °C |
| CC(=O)NCC(=O)O.CC(=O)NCC(=O)O.N=C(N)c1ccc(N=NNc2ccc(C(=N)N)cc2)cc1 [Berenil, reference compound] | no effect | no effect | no effect | – | – | – | – | not effective | IC50 values (μM ± SEM) 085 aerobic [1, 8]: no effect |
| N=C(N)c1ccc(-c2ccc(-c3ccc(C(=N)N)cc3)o2)cc1 [Compound 1, 2,5-Bis(4-amidinophenyl)furan] | – | – | – | 8.12 ± 2.45 µM | 18.6 ± 19.8 µM | 18.6 ± 6.43 µM | 57.9 ± 19.6 µM | – | effectiveness versus metronidazole and tinidazole against resistant strain 085 ([1]; aerobic conditions): clearly more effective; activity against metronidazole-sensitive 520 isolate [2]: good activity |
| CONC(=N)c1ccc(-c2ccc(-c3ccc(C(=N)NOC)cc3)o2)cc1 [Compound 2, 2,5-Bis[4-(O-methyloxyamidino)phenyl]furan] | no effect | no effect | no effect | 39.1 ± 25.1 µM | – | – | – | generally ineffective | – |
| CC(C)NC(=N)c1ccc(-c2ccc(-c3ccc(C(=N)NC(C)C)cc3)o2)cc1 [Compound 3, 2,5-Bis[4-(N-isopropylamidino)phenyl]furan] | – | – | – | 6.44 ± 3.89 µM | 9.41 ± 7.92 µM | 6.6 ± 1.76 µM | 3.91 ± 1.06 µM | – | – |
| N=C(NC1CCCCC1)c1ccc(-c2ccc(-c3ccc(C(=N)NC4CCCCC4)cc3)o2)cc1 [Compound 4, 2,5-Bis[4-(N-cyclohexylamidino)phenyl]-furan] | – | – | – | 22.4 ± 13.7 µM | 10.2 ± 8.47 µM | 15.9 ± 0.74 µM | 13.9 ± 3.74 µM | – | – |
| Cc1ncc([N+](=O)[O-])n1CCO [Metronidazole, reference compound] | – | – | – | – | – | – | – | – | IC50 [1, 14]: 303 ± 22.2 µM; IC50 [1, 15]: 12.3 ± 23.8 µM; IC50 [2, 16]: 18.2 ± 4.25 µM; IC50 [2, 17]: 1.89 ± 0.77 µM; infections successfully treated [5]: 90-95% |
| CCS(=O)(=O)CCn1c([N+](=O)[O-])cnc1C [Tinidazole, reference compound] | – | – | – | – | – | – | – | – | IC50 [1, 14]: 45.1 ± 5.38 µM; IC50 [1, 15]: 4.81 ± 1.17 µM; IC50 [2, 16]: 1.48 ± 0.12 µM; IC50 [2, 17]: 0.004 µM |

The next lines start with results.

| IC50 values (μM ± SEM) 520 aerobic [2, 6] | IC50 values (μM ± SEM) 520 anaerobic [2, 7] | IC50 values (μM ± SEM) 085 anaerobic [1, 9] | IC50 [1, 10] | IC50 [1, 11] | IC50 [2, 12] | IC50 [2, 13] | Compound | effectiveness against T. vaginalis in vitro [3] | also measured |
| --- | --- | --- | --- | --- | --- | --- | --- | --- | --- |
| no effect | no effect | no effect | – | – | – | – | N=C(N)Nc1ccc(-c2ccc(-c3ccc(NC(=N)N)cc3)o2)cc1 [Compound 5, 2,5-Bis-(4-guanidinophenyl)furan] | not effective | IC50 values (μM ± SEM) 085 aerobic [1, 8]: no effect |
| no effect | no effect | no effect | – | – | – | – | N=C(N)c1ccc(-c2coc(-c3ccc(C(=N)N)cc3)c2)cc1 [Compound 6, 3,5-Bis(4-amidophenyl)furan] | not effective | IC50 values (μM ± SEM) 085 aerobic [1, 8]: no effect |
| – | – | – | 7.27 ± 3.76 µM | 37.6 ± 43.9 µM | 44.7 ± 9.33 µM | 143 ± 127 µM | CC(C)NC(=N)c1ccc2nc(-c3ccc4oc(-c5nc6ccc(C(=N)NC(C)C)cc6[nH]5)cc4c3)[nH]c2c1 [Compound 8, 2,5-Bis{2-[5-(N-isopropylamidino)benzimidazoyl]}benzo[b]furan tetrahydrochloride] | effective anti-trichomonads | – |
| – | – | – | 0.27 ± 0.04 µM | 0.5 ± 0.42 µM | 0.98 ± 0.19 µM | 1.24 ± 0.39 µM | N=C(N)c1ccc(-c2ccc(-c3nc4ccc(C(=N)N)cc4[nH]3)s2)cc1 [Compound 9, 2-(4-Amidinophenyl)-5-[2-(5-amidinobenzimidazoyl)]thiophene] | most effective dication | IC50 ([1]; Trichomonas vaginalis, read-out: IC50 values): ≤ 1 µM; IC50 ([2]; read-out: IC50 values): ≤ 1 µM; in vivo treatment of a different protozoal infection [4]: successfully used; toxicity to the host [4]: without overt evidence of toxicity |
| no effect | no effect | no effect | – | – | – | – | N=C(N)c1ccc(OCCCCCOc2ccc(C(=N)N)cc2)cc1 [Pentamidine, reference compound] | not effective | IC50 values (μM ± SEM) 085 aerobic [1, 8]: no effect |
